Data published in US9637483B2, “Heterocyclic compound” (TAKEDA PHARMACEUTICAL COMPANY LIMITED, priority 2013, dated 2017).

Assays:
Format in all cases: biochemical
JAK1 = target: T1, JAK1 (Homo sapiens, UniProt P23458); experiment: JAK1 enzyme inhibition test (LANCE method); conditions: 1 μM test compound; for inhibition at 1 µM: read-out: JAK1 enzyme inhibitory activity (%, 1 μM)
T1 construct: purchased Invitrogen
Outline: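 TR-FRET (LANCE) with ULight-JAK1 peptide (300 nM working solution) and ATP (150 μM working solution) in HEPES pH 7.5, MgCl2, EGTA, DTT buffer; 1 h at room temperature. EDTA stop plus Eu-anti-phosphotyrosine antibody, 665 nm read after 1 h. Inhibition relative to enzyme-free wells as 100%.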

JAK2 = target: T2, JAK2 (Homo sapiens, UniProt O60674); experiment: JAK2 enzyme inhibition test (LANCE method); conditions: 1 μM test compound; for inhibition at 1 µM: read-out: JAK2 enzyme inhibitory activity (%, 1 μM)
T2 construct: purchased Invitrogen
Outline: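 Recombinant JAK2 (6 ng/mL solution) phosphorylated ULight-JAK1 peptide (300 nM solution) with ATP (45 μM solution) in pH 7.5 HEPES/MgCl2/DTT buffer for 1 hr at room temperature. After EDTA stop and europium anti-phosphotyrosine antibody for 1 hr, TR-FRET read at 665 nm; inhibition relative to enzyme-free wells as 100%.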

JAK3 = target: T3, JAK3 (Homo sapiens, UniProt P52333); experiment: JAK3 enzyme inhibition test (LANCE method); conditions: 1 μM test compound; for inhibition at 1 µM: read-out: JAK3 enzyme inhibitory activity (%, 1 μM)
T3 construct: purchased Invitrogen
T3 sequence (P52333 1-1124): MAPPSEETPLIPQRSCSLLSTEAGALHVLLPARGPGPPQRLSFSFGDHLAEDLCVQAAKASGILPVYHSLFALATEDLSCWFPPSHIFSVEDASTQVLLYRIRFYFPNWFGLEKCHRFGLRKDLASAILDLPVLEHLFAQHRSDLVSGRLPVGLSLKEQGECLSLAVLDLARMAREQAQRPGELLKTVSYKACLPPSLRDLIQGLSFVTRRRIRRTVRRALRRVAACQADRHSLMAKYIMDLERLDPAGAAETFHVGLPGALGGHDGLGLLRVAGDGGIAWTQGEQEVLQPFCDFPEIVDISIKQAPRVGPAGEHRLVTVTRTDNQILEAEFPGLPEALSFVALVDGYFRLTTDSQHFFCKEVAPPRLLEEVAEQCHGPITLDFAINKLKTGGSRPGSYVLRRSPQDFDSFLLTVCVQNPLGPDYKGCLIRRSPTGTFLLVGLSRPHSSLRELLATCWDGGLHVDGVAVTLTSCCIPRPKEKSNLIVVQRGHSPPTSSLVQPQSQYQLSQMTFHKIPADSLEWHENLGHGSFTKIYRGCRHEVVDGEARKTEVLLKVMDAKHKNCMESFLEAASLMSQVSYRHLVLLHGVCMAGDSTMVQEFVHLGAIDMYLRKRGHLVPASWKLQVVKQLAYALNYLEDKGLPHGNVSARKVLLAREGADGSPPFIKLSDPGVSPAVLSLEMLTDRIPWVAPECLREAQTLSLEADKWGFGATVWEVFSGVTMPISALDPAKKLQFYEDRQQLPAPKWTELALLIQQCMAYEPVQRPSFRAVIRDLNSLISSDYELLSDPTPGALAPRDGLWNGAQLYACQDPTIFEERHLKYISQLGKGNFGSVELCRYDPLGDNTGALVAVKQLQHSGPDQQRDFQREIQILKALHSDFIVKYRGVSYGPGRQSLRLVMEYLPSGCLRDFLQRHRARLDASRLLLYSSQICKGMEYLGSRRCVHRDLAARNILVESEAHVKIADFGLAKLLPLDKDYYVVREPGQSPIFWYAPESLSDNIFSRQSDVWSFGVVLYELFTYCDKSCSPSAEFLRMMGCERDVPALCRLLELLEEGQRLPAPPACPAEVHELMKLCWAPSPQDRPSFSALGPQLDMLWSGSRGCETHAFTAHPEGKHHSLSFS
Outline: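 Recombinant JAK3 (12 ng/mL solution) with ULight-JAK1 peptide (300 nM solution) and ATP (15 μM solution) in HEPES pH 7.5 buffer, 1 h at room temperature. EDTA stop with Eu-anti-phosphotyrosine antibody; TR-FRET at 665 nm. Inhibition relative to enzyme-free wells as 100%.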

TYK2 = target: T4, TYK2 (Homo sapiens, UniProt P29597); experiment: TYK2 enzyme inhibition test (LANCE method); conditions: 1 μM test compound; for inhibition at 1 µM: read-out: TYK2 enzyme inhibitory activity (%, 1 μM)
T4 construct: purchased Invitrogen
Outline: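 Recombinant TYK2 (375 ng/mL working solution) with ULight-JAK1 peptide (300 nM working solution) and ATP (30 μM working solution) in HEPES pH 7.5 buffer with MgCl2, EGTA, DTT, Tween20, BSA, reacted 1 h at RT. EDTA-stopped, Eu-anti-phosphotyrosine TR-FRET read at 665 nm; inhibition relative to enzyme-free wells as 100%.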

T1 sequence (P23458 whole entry): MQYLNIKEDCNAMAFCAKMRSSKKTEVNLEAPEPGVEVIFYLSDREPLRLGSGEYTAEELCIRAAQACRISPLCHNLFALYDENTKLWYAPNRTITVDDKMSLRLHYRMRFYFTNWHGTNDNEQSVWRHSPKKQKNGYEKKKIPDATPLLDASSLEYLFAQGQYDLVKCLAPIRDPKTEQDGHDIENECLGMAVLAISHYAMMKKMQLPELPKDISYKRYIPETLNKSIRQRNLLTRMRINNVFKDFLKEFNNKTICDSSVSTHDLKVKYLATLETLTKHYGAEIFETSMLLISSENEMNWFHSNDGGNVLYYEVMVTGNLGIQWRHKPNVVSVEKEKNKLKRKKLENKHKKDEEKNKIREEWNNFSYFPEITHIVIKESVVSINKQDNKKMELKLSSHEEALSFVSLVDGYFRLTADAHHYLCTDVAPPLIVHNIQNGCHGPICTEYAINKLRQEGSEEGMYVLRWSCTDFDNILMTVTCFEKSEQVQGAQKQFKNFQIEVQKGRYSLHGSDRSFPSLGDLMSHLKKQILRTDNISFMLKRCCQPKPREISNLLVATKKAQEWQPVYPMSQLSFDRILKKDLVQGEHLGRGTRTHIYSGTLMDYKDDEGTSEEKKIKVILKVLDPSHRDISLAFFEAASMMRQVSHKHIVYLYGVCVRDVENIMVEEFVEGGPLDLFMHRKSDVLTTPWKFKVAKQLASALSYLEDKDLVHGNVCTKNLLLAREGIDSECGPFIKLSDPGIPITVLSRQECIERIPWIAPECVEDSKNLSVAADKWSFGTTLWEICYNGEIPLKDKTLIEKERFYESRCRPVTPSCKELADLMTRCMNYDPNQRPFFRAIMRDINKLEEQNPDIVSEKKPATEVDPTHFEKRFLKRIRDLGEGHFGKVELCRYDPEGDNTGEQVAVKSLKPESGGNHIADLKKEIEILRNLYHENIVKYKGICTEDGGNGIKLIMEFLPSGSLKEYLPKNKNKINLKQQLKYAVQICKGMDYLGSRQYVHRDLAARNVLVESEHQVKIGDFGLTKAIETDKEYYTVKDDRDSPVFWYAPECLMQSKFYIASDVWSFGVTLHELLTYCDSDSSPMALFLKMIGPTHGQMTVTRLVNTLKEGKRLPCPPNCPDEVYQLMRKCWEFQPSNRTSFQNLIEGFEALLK
T2 sequence (O60674 whole entry): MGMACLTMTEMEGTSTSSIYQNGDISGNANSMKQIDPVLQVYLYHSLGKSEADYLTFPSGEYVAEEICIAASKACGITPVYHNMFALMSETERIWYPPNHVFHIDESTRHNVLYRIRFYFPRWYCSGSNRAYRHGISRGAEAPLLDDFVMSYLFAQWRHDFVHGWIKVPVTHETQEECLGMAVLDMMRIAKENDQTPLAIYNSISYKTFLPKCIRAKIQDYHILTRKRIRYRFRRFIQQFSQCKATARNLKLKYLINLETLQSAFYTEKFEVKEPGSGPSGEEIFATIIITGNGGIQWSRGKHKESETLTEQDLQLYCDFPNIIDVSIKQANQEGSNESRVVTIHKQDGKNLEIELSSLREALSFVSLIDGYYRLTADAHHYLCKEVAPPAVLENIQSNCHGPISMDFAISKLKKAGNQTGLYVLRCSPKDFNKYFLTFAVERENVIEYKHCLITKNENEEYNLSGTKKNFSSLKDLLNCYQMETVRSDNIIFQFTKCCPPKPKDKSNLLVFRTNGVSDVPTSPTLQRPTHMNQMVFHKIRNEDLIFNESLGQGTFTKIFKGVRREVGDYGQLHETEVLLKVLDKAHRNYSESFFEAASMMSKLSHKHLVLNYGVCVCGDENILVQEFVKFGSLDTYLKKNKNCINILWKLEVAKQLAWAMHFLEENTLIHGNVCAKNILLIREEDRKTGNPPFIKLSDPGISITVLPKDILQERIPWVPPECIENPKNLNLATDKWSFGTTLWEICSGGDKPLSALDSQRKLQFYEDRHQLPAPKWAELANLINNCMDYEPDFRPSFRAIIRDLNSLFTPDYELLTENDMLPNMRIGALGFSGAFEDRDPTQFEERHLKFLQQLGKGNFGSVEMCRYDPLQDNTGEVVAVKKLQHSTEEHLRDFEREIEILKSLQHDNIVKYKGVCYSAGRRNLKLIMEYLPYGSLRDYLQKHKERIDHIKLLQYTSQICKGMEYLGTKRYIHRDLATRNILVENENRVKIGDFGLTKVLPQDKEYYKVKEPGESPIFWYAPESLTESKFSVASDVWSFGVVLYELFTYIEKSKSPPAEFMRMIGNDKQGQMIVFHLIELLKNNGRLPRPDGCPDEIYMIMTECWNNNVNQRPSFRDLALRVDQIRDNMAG
T4 sequence (P29597 whole entry): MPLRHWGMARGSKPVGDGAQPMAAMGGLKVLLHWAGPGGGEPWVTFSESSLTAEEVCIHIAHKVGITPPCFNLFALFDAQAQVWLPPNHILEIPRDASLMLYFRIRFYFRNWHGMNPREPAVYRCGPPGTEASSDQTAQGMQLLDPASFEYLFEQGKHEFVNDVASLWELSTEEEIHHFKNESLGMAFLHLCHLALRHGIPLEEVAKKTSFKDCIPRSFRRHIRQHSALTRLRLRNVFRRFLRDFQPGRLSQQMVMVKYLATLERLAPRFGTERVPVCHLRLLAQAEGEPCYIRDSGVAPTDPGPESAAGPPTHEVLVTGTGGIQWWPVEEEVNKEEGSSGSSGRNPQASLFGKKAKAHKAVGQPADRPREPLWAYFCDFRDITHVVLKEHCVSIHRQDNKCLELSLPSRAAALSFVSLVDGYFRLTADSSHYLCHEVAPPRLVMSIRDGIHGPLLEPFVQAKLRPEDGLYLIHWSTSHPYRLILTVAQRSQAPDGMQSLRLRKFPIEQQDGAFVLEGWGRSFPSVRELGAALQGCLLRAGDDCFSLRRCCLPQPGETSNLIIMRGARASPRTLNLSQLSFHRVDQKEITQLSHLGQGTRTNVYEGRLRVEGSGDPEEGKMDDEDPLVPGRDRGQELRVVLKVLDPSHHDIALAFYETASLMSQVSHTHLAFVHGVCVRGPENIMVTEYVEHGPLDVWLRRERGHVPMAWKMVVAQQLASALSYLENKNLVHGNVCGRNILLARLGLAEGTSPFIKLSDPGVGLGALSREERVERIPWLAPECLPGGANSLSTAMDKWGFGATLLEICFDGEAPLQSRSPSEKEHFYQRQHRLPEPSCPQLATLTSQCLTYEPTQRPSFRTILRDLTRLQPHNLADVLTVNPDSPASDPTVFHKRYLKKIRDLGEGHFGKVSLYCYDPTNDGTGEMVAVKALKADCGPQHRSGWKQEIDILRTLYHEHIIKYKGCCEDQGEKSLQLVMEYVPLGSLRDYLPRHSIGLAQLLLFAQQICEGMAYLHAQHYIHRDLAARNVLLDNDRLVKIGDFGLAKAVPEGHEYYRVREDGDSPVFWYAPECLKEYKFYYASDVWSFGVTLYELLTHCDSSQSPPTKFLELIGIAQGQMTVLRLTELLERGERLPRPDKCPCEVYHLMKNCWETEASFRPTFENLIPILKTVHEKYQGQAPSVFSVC

inhibition at 1 µM (JAK1) [%]	inhibition at 1 µM (JAK2) [%]	inhibition at 1 µM (JAK3) [%]	inhibition at 1 µM (TYK2) [%]	JAK1 enzyme inhibitory activity (%, 1 μM) (JAK1) [%]	JAK2 enzyme inhibitory activity (%, 1 μM) (JAK2) [%]	JAK3 enzyme inhibitory activity (%, 1 μM) (JAK3) [%]	TYK2 enzyme inhibitory activity (%, 1 μM) (TYK2; 1 µM) [%]	JAK2 enzyme inhibitory activity (%, 1 μM) (JAK2; 1 µM) [%]	JAK3 enzyme inhibitory activity (%, 1 μM) (JAK3; 1 µM) [%]	TYK2 enzyme inhibitory activity (%, 1 μM) (TYK2) [%]	SMILES
99	99	99	99	–	–	–	–	–	–	–	CC(C)[C@H](C)n1cc(-c2cc(C(C)(C)C#N)n(C)n2)c2[nH]nc(N)c2c1=O [Example 57, 2-(3-(3-amino-5-((2S)-3-methylbutan-2-yl)-4-oxo-4,5-dihydro-1H-pyrazolo[4,3-c]pyridin-7-yl)-1-methyl-1H-pyrazol-5-yl)-2-methylpropanenitrile]
97	99	100	100	–	–	–	–	–	–	–	CC(C)[C@H](C)n1cc(-c2cc(C3CCOCC3)n(C)n2)c2[nH]nc(N)c2c1=O [Example 58]
–	–	–	–	97	98	99	100	–	–	–	CC1CN(c2cc(-c3cn([C@@H](C)C(C)C)c(=O)c4c(N)n[nH]c34)nn2C)CCO1 (stereo partly drawn) [Example 59, 3-amino-5-((2S)-3-methylbutan-2-yl)-7-(1-methyl-5-(2-methylmorpholin-4-yl)-1H-pyrazol-3-yl)-1,5-dihydro-4H-pyrazolo[4,3-c]pyridin-4-one]
–	–	–	–	96	98	99	99	–	–	–	CC1CN(c2cc(-c3cn([C@@H](C)C(C)C)c(=O)c4c(N)n[nH]c34)nn2C)CCO1 (stereo partly drawn) [Example 60, 3-amino-5-((2S)-3-methylbutan-2-yl)-7-(1-methyl-5-(2-methylmorpholin-4-yl)-1H-pyrazol-3-yl)-1,5-dihydro-4H-pyrazolo[4,3-c]pyridin-4-one]
–	–	–	–	97	–	–	–	99	100	99	CC(C)[C@H](C)n1cc(-c2cc(N3CCN4CCCC4C3)n(C)n2)c2[nH]nc(N)c2c1=O (stereo partly drawn) [Example 61, 3-amino-7-(5-(hexahydropyrrolo[1,2-a]pyrazin-2 (H)-yl)-1-methyl-1H-pyrazol-3-yl)-5-((2S)-3-methylbutan-2-yl)-1,5-dihydro-4H-pyrazolo[4,3-c]pyridin-4-one]
–	–	–	–	97	–	–	–	99	99	99	CC(C)[C@H](C)n1cc(-c2cc(N3CCN4CCCC4C3)n(C)n2)c2[nH]nc(N)c2c1=O (stereo partly drawn) [Example 62, 3-amino-7-(5-(hexahydropyrrolo[1,2-a]pyrazin-2 (H)-yl)-1-methyl-1H-pyrazol-3-yl)-5-((2S)-3-methylbutan-2-yl)-1,5-dihydro-4H-pyrazolo[4,3-c]pyridin-4-one]
–	–	–	–	96	–	–	99	99	100	–	CC(C)[C@H](C)n1cc(-c2cc(N3CCC(C)(O)C3)n(C)n2)c2[nH]nc(N)c2c1=O (stereo partly drawn) [Example 63, 3-amino-7-(5-(3-hydroxy-3-methylpyrrolidin-1-yl)-1-methyl-1H-pyrazol-3-yl)-5-((2S)-3-methylbutan-2-yl)-1,5-dihydro-4H-pyrazolo[4,3-c]pyridin-4-one]
–	–	–	–	97	–	–	100	99	99	–	CC(C)[C@H](C)n1cc(-c2cc(N3CCC(C)(O)C3)n(C)n2)c2[nH]nc(N)c2c1=O (stereo partly drawn) [Example 64, 3-amino-7-(5-(3-hydroxy-3-methylpyrrolidin-1-yl)-1-methyl-1H-pyrazol-3-yl)-5-((2S)-3-methylbutan-2-yl)-1,5-dihydro-4H-pyrazolo[4,3-c]pyridin-4-one]
99	98	100	100	–	–	–	–	–	–	–	CNC(=O)c1cc(-c2cn(-c3c(F)cccc3F)c(=O)c3c(N)n[nH]c23)nn1C [Example 65, 3-(3-amino-5-(2,6-difluorophenyl)-4-oxo-4,5-dihydro-1H-pyrazolo[4,3-c]pyridin-7-yl)-N,1-dimethyl-1H-pyrazole-5-carboxamide]
99	99	100	100	–	–	–	–	–	–	–	Cn1nc(-c2cn(-c3c(F)cccc3F)c(=O)c3c(N)n[nH]c23)cc1C(=O)N1CCOCC1 [Example 66, 3-amino-5-(2,6-difluorophenyl)-7-(1-methyl-5-(morpholin-4-ylcarbonyl)-1H-pyrazol-3-yl)-1,5-dihydro-4H-pyrazolo[4,3-c]pyridin-4-one]
98	97	99	100	–	–	–	–	–	–	–	Cn1nc(-c2cn(-c3c(F)cccc3C#N)c(=O)c3c(N)n[nH]c23)cc1N1CCOCC1 [Example 67, 2-(3-amino-7-(1-methyl-5-(morpholin-4-yl)-1H-pyrazol-3-yl)-4-oxo-1,4-dihydro-5H-pyrazolo[4,3-c]pyridin-5-yl)-3-fluorobenzonitrile]
99	97	99	99	–	–	–	–	–	–	–	Cn1nc(-c2cn(-c3c(F)cccc3C#N)c(=O)c3c(N)n[nH]c23)cc1C1=CCOCC1 [Example 68, 2-(3-amino-7-(5-(3,6-dihydro-2H-pyran-4-yl)-1-methyl-1H-pyrazol-3-yl)-4-oxo-1,4-dihydro-5H-pyrazolo[4,3-c]pyridin-5-yl)-3-fluorobenzonitrile]
97	96	98	99	–	–	–	–	–	–	–	Cn1nc(-c2cn(-c3c(F)cccc3C#N)c(=O)c3c(N)n[nH]c23)cc1C1CCOCC1 [Example 69, 2-(3-amino-7-(1-methyl-5-(tetrahydro-2H-pyran-4-yl)-1H-pyrazol-3-yl)-4-oxo-1,4-dihydro-5H-pyrazolo[4,3-c]pyridin-5-yl)-3-fluorobenzonitrile]
97	96	99	100	–	–	–	–	–	–	–	CN1CCN(c2cc(-c3cn(-c4c(F)cccc4C#N)c(=O)c4c(N)n[nH]c34)nn2C)CC1 [Example 70, 2-(3-amino-7-(1-methyl-5-(4-methylpiperazin-1-yl)-1H-pyrazol-3-yl)-4-oxo-1,4-dihydro-5H-pyrazolo[4,3-c]pyridin-5-yl)-3-fluorobenzonitrile]
98	97	98	99	–	–	–	–	–	–	–	Cn1nc(-c2cn(-c3c(F)cccc3C#N)c(=O)c3c(N)n[nH]c23)cc1C(C)(C)O [Example 71, 2-(3-amino-7-(5-(2-hydroxypropan-2-yl)-1-methyl-1H-pyrazol-3-yl)-4-oxo-1,4-dihydro-5H-pyrazolo[4,3-c]pyridin-5-yl)-3-fluorobenzonitrile]
